{"source": "patent US7179495B1", "about": "(Universitaetsklinikum Freiburg, priority 1998, dated 2007)", "key": {"Jurkat (leukaemia)": {"system": "Jurkat (leukaemia)", "experiment": "apoptotic DNA fragmentation by DNA gel electrophoresis", "type": "cell-based, human", "method": "The DNA fragmentation was determined by means of DNA gel electrophoresis. Jurkat (leukaemia) was used as the tumour cell line.\nApoptotic DNA fragments were isolated by means of lysis with NP 40. The cells were washed and pelleted after 4 hours or after 24 hours, respectively. The cell pellet was incubated for 10 sec. with lysis buffer (1% NP 40, Sigma; 20 mM EDTA, Sigma; 50 mM Tris-HCl, Sigma). the lysates were mixed with 1% SDS (Sigma), incubated at 56° C. for 2 h with RNase (5 μg/μl) (Boehringer), and digested with proteinase K (Sigma) (2.5 μg/μl) for 2 h at 37° C. After 10 M ammonium acetate had been added, the DNA was precipitated with 100% ethanol at −20° C. and analysed by means of gel electrophoresis on 1% agarose gels."}, "HaCaT cells": {"system": "HaCaT cells", "experiment": "proliferation of keratinocytes, 3H-thymidine incorporation", "type": "cell-based, human"}, "[1]": {"system": "epidermal cells (EC) and T cells (TC)", "experiment": "MECLR in vitro, EC or TC preincubated with hyperforin", "settings": "FIG. 9", "quoted_text": "The roof of the blister was dissected out under sterile conditions using a scalpel and a suspension of epidermal cells (EC) was prepared by treating with trypsin. […] After that, the cells were washed and 50,000 EC were cocultured for 6 days (37° C., 5% CO2) with 150,000 TC (T cells) in 1640 RPMI containing 10% foetal calf serum (FCS) containing 1% penicillin-streptomycin in 96-well flat-bottomed microtitre plates (Greiner). 1 μCurie of ^3H-thymidine (Amersham) was then added per well and, after 18 h, the incorporated radioactivity was measured in a scintillation counter (Canberra Packard). The radioactivity which is measured is proportional to the replication of the DNA in the cells."}, "T cells [2]": {"system": "T cells", "experiment": "proliferation of T cells", "type": "cell-based"}, "keratinocytes (HaCaT)": {"system": "keratinocytes (HaCaT)", "experiment": "induction of apoptosis in keratinocytes", "type": "cell-based"}, "T cells [3]": {"system": "T cells", "experiment": "induction of apoptosis in T cells", "type": "cell-based"}}}
{"smiles": "CC(C)=CCC[C@]1(C)[C@@H](CC=C(C)C)CC2(CC=C(C)C)C(=O)C(CC=C(C)C)=C(O)C1(C(=O)C(C)C)C2=O", "note": "(stereo partly shown) [hyperforin]", "values": [{"measurement": "apoptotic DNA fragmentation", "setting": "Jurkat (leukaemia); 40 μM, 4 hours", "value": "++"}, {"measurement": "apoptotic DNA fragmentation", "setting": "Jurkat (leukaemia); 40 μM, 24 hours", "value": "++"}, {"measurement": "speed of apoptosis induction compared with taxol", "setting": "Jurkat (leukaemia); hyperforin 40 μM vs taxol 10 μM, fully developed after only 4 hours", "value": "induces apoptosis in tumour cells more rapidly than does taxol"}, {"measurement": "concentration from which a proliferation-inhibiting effect is seen", "setting": "HaCaT cells; human keratinocytes", "value": "≥ 100", "unit": "ng/mL"}, {"measurement": "proliferation of HaCaT cells", "setting": "HaCaT cells; hyperforin 100 μg/ml, 24 h, FIG. 6", "value": "virtually completely inhibited"}, {"measurement": "proliferation in MECLR", "setting": "[1]; EC incubated 24 h with 24 μg of hyperforin/ml", "value": "significantly inhibits proliferation"}, {"measurement": "proliferation in MECLR", "setting": "[1]; TC incubated 24 h with 24 μg of hyperforin/ml", "value": "significantly inhibits proliferation"}]}
{"smiles": "Cc1cc(O)c2c(=O)c3c(O)cc(O)c4c5c(O)cc(O)c6c(=O)c7c(O)cc(C)c8c1c2c(c34)c(c78)c65", "note": "[hypericin]", "values": [{"measurement": "effect on proliferation of keratinocytes (HaCaT)", "setting": "HaCaT cells", "value": "proliferation-inhibiting effect"}, {"measurement": "effect on proliferation of T cells", "setting": "T cells [2]", "value": "proliferation-inhibiting effect"}, {"measurement": "induction of apoptosis", "setting": "keratinocytes (HaCaT)", "value": "can induce apoptasis"}, {"measurement": "induction of apoptosis", "setting": "T cells [3]", "value": "can induce apoptasis"}]}
{"smiles": "CC(=O)O[C@H]1C(=O)[C@@]2(C)[C@H]([C@H](OC(=O)c3ccccc3)[C@]3(O)C[C@H](OC(=O)[C@H](O)[C@@H](NC(=O)c4ccccc4)c4ccccc4)C(C)=C1C3(C)C)[C@]1(OC(C)=O)CO[C@@H]1C[C@@H]2O", "note": "[taxol, reference compound]", "values": [{"measurement": "apoptotic DNA fragmentation", "setting": "Jurkat (leukaemia); 10 μM, 4 hours", "value": "+"}, {"measurement": "apoptotic DNA fragmentation", "setting": "Jurkat (leukaemia); 10 μM, 24 hours", "value": "++"}]}
